According to patent US20050096381A1, “Derivatives of isoflavones” (YEDA & MEDICAL RESEARCH, priority 2002, published 2005):
“Also recorded” adds a separate entry of the source. Where two headings read alike, the source gives them in different places.

Tests used:
Recombinant ERα protein = target: T1, Recombinant ERα protein (Homo sapiens, UniProt P03372); experiment: Estrogen receptor-binding assay, [3H]-17β-estradiol displacement, ERα; settings: result in words
T1 sequence (P03372 1-595): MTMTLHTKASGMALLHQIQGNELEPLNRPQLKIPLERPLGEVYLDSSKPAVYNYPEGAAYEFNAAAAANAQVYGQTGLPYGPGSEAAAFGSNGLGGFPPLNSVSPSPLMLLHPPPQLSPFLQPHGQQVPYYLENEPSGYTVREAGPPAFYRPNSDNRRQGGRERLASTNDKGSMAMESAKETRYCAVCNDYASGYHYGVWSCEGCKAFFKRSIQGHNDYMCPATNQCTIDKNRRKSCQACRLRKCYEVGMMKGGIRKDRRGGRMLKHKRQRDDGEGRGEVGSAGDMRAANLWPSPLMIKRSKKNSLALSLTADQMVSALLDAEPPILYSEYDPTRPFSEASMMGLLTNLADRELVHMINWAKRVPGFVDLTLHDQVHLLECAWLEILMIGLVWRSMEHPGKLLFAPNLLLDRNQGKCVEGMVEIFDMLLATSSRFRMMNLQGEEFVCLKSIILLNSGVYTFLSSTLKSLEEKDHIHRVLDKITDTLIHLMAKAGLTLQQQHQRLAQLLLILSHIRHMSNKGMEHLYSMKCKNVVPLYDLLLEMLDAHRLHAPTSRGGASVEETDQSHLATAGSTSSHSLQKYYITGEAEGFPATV
Experimental: (§1) Biotinylated anti-ER antibody (α or β, prepared as described in Strasburger C J & Kohen F 1990 Methods Enzymol. 184:481-496), 100 ng/well in 100 μl of binding buffer, was added to each well, and the reaction mixtures were incubated with shaking for 2 h and 30 min at room temperature. The reaction mixtures were then decanted, and each well was washed once with binding buffer. Dilute sodium hydroxide (0.1 N, 300 μl) was added to each well. After shaking for 20 min, an aliquot (200 μl) was removed from each well and added to a vial containing scintillation fluid. The vials were then counted for radioactivity in a beta scintillation counter.

Recombinant ERβ protein = Recombinant ERβ protein (Homo sapiens, UniProt Q92731); experiment: Estrogen receptor-binding assay, [3H]-17β-estradiol displacement, ERβ; settings: for binding activity to ERβ: result in words
Experimental: as §1

[1] = system: creatine kinase (CK) specific activity, an estrogen responsive enzyme; experiment: Stimulation of the specific activity of creatine kinase (CK) in rat tissues in vivo; settings: for CK specific activity (experimental/control), aorta: Ao; for CK specific activity (experimental/control), aorta / CK specific activity (experimental/control), diaphysis / CK specific activity (experimental/control), epiphysis / CK specific activity (experimental/control), left ventricle of the heart / CK specific activity (experimental/control), pituitary / CK specific activity (experimental/control), uterus: immature female rats, i.p., 24 h, mean ± SD, n = 5, control = 1.0; for CK specific activity (experimental/control), diaphysis: Dia; for CK specific activity (experimental/control), epiphysis: Epi; for CK specific activity (experimental/control), left ventricle of the heart: LV; for CK specific activity (experimental/control), pituitary: Pi; for CK specific activity (experimental/control), uterus: Ut; for effect on CK specific activity in rat tissues (in words): uterus, pituitary, epiphysis, diaphysis, aorta, left ventricle
Experimental: The ability of the isoflavone derivatives to bind estrogen receptor and/or to modulate estrogen receptor response may be examined by any assay known in the art. A convenient assay described herein as a non-limiting example utilizes the specific activity of creatine kinase (CK), an estrogen responsive enzyme, as a parameter for the estrogen-like activity of the isoflavone derivatives of the present invention.
The rats were killed by decapitation 24 h after i.p. injection. The various organs were removed and stored at −20° C. until processed for CK activity as previously described (Somjen D. et al. 1998 Hypertension 32:39-45).

[2] = system: human vascular smooth muscle cells (VSMC), expressing mainly ERβ; experiment: cells; format: cell-based
Experimental: Human umbilical artery smooth muscle cells, expressing mainly ERβ, were prepared as previously described with minor modifications (Somjen D. et al. 1998 Hypertension 32:39-45). In brief, umbilical cords were collected shortly after delivery. The umbilical arteries were isolated by dissection, cleaned of blood and adventitia and then cut into tiny slices (1-3 mm). The segments were kept in culture in medium 199 containing 20% FCS, glutamine and antibiotics. […] Cells were fed twice a week and, upon confluence, trypsinized and transferred to 24-well dishes. Cells were used only at passages 1-3 when expression of smooth muscle actin was clearly demonstrable.
(§2) Assessment of DNA synthesis was performed by [^3H]-thymidine incorporation in these cells. Cells were grown until subconfluence and then treated with various hormones or agents as indicated. Forty-eight hours later, [^3H] thymidine was added for two hours. Cells were then treated with 10% ice-cold trichloroacetic (TCA) for 5 min and washed twice with 5% TCA and then with cold ethanol. The cellular layer was dissolved in 0.3 ml of 0.3M NaOH, samples were taken and [^3H] thymidine incorporation into DNA was determined. The concentration of hormone to produce half-maximal induction (EC50) or inhibition (IC50) was calculated from the dose response curves.
(§3) In the second phase the cytotoxicity of isoflavone-daunomycin conjugates was tested after 48 h of incubation in normal cells [VSMC, E304, non transformed enterocytes (TEC)] and malignant cells [human adrenocortical carcinoma (NCI-H295R), human colon cancer cells (colo320) and c-K-ras transformed rat enterocytes (R1)] using uptake of [^3H]-thymidine as a proliferation marker.

[3] = system: E304 endothelial cells (expressing mainly ERα); experiment: DNA synthesis by [3H]-thymidine incorporation in E304 cells; format: cell-based, human
Experimental: E304 cells, expressing mainly ERα, an endothelial cell line derived from a human umbilical vein, were purchased from American Type Culture Collection (ATCC), Rockville, Md., and grown in medium 199 containing 10% FCS, glutamine and antibiotics.
as §2, §3

[4] = system: c-K-ras transformed rat enterocytes (R1); experiment: cells; format: cell-based; settings: read-out: concentration required for 50% inhibition of DNA synthesis (IC50), R1
Experimental: (§4) Cell lines were obtained from Prof. N. Arber, Ichilov Hospital, Tel-Aviv, Israel and grown as described previously (Arber N et al. 1996 Oncogene 12:1903-1908).
as §2, §3

[5] = system: nontransformed rat enterocytes (IEC); experiment: cells; format: cell-based; settings: read-out: concentration required for 50% inhibition of DNA synthesis (IC50), IEC
Experimental: as §4, §2, §3

[6] = system: human adrenocortical carcinoma cells (NCI-H295R); experiment: cells; format: cell-based; settings: for IC50: read-out: concentration required for 50% inhibition of DNA synthesis (IC50), NCI-H295R
Experimental: These cells were purchased from ATTC (Rockville, Md.) and grown in Dulbecco's modified Eagle's medium containing antibiotics.
as §2, §3

[7] = system: human colon cancer cells (colo320); experiment: DNA synthesis by [3H]-thymidine incorporation in colo320 cells; format: cell-based
Experimental: These cells were purchased from ATTC (Rockville, Md.) and grown in RPMI medium containing 20 mM HEPES and 10% fetal calf serum.
as §2, §3

[8] = 48 h incubation, [3H]-thymidine, read-out: concentration required for 50% inhibition of DNA synthesis (IC50), VSMC
[9] = 48 h incubation, read-out: concentration required for 50% inhibition of DNA synthesis (IC50), E304
[10] = 48 h incubation, [3H]-thymidine

Sequence of Recombinant ERβ protein (Q92731 whole entry, species assumed): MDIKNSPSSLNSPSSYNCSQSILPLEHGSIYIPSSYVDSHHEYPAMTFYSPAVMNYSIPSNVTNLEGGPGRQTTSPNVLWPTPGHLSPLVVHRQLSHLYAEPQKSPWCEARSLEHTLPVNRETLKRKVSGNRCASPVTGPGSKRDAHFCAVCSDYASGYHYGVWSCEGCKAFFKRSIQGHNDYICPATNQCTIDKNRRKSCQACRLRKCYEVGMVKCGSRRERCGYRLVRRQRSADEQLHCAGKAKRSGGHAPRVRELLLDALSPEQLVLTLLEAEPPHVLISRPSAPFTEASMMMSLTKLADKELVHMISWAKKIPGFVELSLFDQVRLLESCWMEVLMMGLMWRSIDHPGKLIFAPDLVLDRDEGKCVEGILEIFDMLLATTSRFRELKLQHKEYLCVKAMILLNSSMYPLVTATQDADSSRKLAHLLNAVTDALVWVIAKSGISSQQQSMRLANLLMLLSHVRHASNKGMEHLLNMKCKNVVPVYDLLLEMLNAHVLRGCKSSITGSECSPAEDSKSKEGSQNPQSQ

COc1ccc(-c2coc3cc(O)cc(O)c3c2=O)cc1 [Biochanin A, biochanin A] was tested, and the “binding activity to ERα” value (Recombinant ERα protein) was “did not show any significant binding activity”, the “binding activity to ERβ” value (Recombinant ERβ protein) was “did not show any significant binding activity” and the “CK specific activity (experimental/control), aorta” value [1] was 2 ± 0.18. The “CK specific activity (experimental/control), diaphysis” value [1] was 1.9 ± 0.23, the “CK specific activity (experimental/control), epiphysis” value [1] was 2.38 ± 0.18 and the “CK specific activity (experimental/control), left ventricle of the heart” value [1] was 1.42 ± 0.04. The “CK specific activity (experimental/control), pituitary” value [1] was 1.58 ± 0.05, the “CK specific activity (experimental/control), uterus” value [1] was 1.42 ± 0.13 and the “effect on CK specific activity in rat tissues (in words)” value (“effect on CK specific activity” for short) [1] was “stimulated the CK specific activity in all the rat tissues”.

In the case of COc1ccc(-c2coc3cc(O)c(CC(=O)O)c(O)c3c2=O)cc1 [6-carboxymethyl biochanin A], the “binding activity to ERα” value (Recombinant ERα protein) is reported as “did not show any significant binding activity”, the “binding activity to ERβ” value (Recombinant ERβ protein) is reported as “did not show any significant binding activity” and the “CK specific activity (experimental/control), aorta” value [1] is reported as 1.63 ± 0.11. The “CK specific activity (experimental/control), diaphysis” value [1] was 1.51 ± 0.05, the “CK specific activity (experimental/control), epiphysis” value [1] was 1.61 ± 0.17 and the “CK specific activity (experimental/control), left ventricle of the heart” value [1] was 1.91 ± 0.16. The “CK specific activity (experimental/control), pituitary” value [1] was 1.54 ± 0.05, the “CK specific activity (experimental/control), uterus” value [1] was 0.89 ± 0.12 and the “stimulatory response of E2 to CK specific activity on combination with E2 (in words)” value ([1]; rats treated with E2 plus compound) was “inhibited in all the tissues”. For the same molecule, the “effect on CK specific activity” value [1] was “increased the CK specific activity in all the rat tissues with the exception of the uterus; also recorded: caused an increase in CK activity in rat tissues”.

In the case of “6-carboxymethyl genistein daunomycin conjugate [Cgen-daunomycin]”, the IC50 ([2]; 48 h incubation, [3H]-thymidine, listed as 6-carboxymethyl genistein daunomycin conjugate, read-out: concentration required for 50% inhibition of DNA synthesis (IC50), VSMC) is reported as 20 nM, the IC50 [2, 8] is reported as 12 nM and the IC50 [3, 9] is reported as 60 nM. For the same molecule, the IC50 [4] was 70 nM, the IC50 [5] was 2000 nM and the IC50 [6] was 16 nM.

Molecule COc1cccc2c1C(=O)c1c(O)c3c(c(O)c1C2=O)C[C@@](O)(C(C)=O)C[C@@H]3O[C@H]1C[C@H](N)[C@H](O)[C@H](C)O1 [Daunomycin, daunomycin, reference compound] has an IC50 ([2]; Homo sapiens, VSMC, read-out: concentration required for 50% inhibition of DNA synthesis (IC50), VSMC, 48 h incubation, [3H]-thymidine) of 700 nM, an IC50 ([2]; read-out: concentration required for 50% inhibition of DNA synthesis (IC50), VSMC, 48 h incubation, [3H]-thymidine) of 650 nM and an IC50 [3, 9] of 300 nM. It also gave an IC50 ([3]; read-out: concentration required for 50% inhibition of DNA synthesis (IC50), E304, 48 h incubation) of 800 nM, an IC50 ([4]; Rattus norvegicus) of 850 nM and an IC50 ([5]; Rattus norvegicus) of 550 nM. It also gave an IC50 ([7]; Homo sapiens, COLO 320, read-out: concentration required for 50% inhibition of DNA synthesis (IC50), Colo320) of 300 nM.

For O=C(O)COc1ccc2c(=O)c(-c3ccc(O)cc3)coc2c1 [7-(O)-carboxymethyl daidzein], the “binding activity to ERα” value (Recombinant ERα protein) was “did not show any significant binding activity” and the “binding activity to ERβ” value (Recombinant ERβ protein) was “did not show any significant binding activity”.

In the case of O=c1c(-c2ccc(O)cc2)coc2cc(O)ccc12 [Daidzein, reference compound], the “binding activity to ERα” value (Recombinant ERα protein) is reported as “did not show any significant binding activity” and the “binding activity to ERβ” value (Recombinant ERβ protein) is reported as “did not show any significant binding activity”.

C[C@]12CC[C@@H]3c4ccc(O)cc4CC[C@H]3[C@@H]1CC[C@@H]2O [Estradiol, 17β-estradiol] was tested, and the “CK specific activity (experimental/control), aorta” value [1] was 2.43 ± 0.06, the “CK specific activity (experimental/control), diaphysis” value [1] was 2.75 ± 0.23 and the “CK specific activity (experimental/control), epiphysis” value [1] was 1.85 ± 0.16. The “CK specific activity (experimental/control), left ventricle of the heart” value [1] was 1.53 ± 0.13, the “CK specific activity (experimental/control), pituitary” value [1] was 1.45 ± 0.05 and the “CK specific activity (experimental/control), uterus” value [1] was 1.49 ± 0.13. For the same molecule, the “effect on CK specific activity” value [1] was “stimulated the CK specific activity in all the rat tissues”.

In the case of O=C(O)Cc1c(O)cc2occ(-c3ccc(O)cc3)c(=O)c2c1O [6-carboxymethyl genistein], the EC50 ([2]; Homo sapiens, VSMC, [3H]-thymidine incorporation, read-out: induced proliferation, EC50 in VSMC) is reported as 3 nM, the EC50 ([6]; Homo sapiens, NCI-H295R, [3H]-thymidine incorporation, read-out: induced proliferation, EC50 in NCI-H295R) is reported as 2 nM and the IC50 (Recombinant ERβ protein; recombinant ERβ, [3H]-17β-estradiol 3 nM, read-out: inhibition of binding of [3H]-estradiol to ERβ, relative binding affinity values (IC50)) is reported as 200 nM. For the same molecule, the “effect on CK specific activity” value [1] was “caused an increase in CK activity in rat tissues”.

“6-carboxymethyl biochanin A daunomycin conjugate [Cbio-daunomycin]” showed an IC50 [3, 9] of 5 nM, an IC50 [6, 10] of 60 nM and an IC50 ([7]; 48 h incubation, [3H]-thymidine, read-out: concentration required for 50% inhibition of DNA synthesis (IC50), Colo320) of 40 nM.

Molecule “7-(O)-carboxymethyl daidzein-daunomycin conjugate [Cdaid-daunomycin]” has an IC50 [2, 8] of 22 nM, an IC50 ([6]; 48 h incubation, [3H]-thymidine, listed as 7-(O)-carboxymethyl daidzein-daunomycin conjugate) of 7 nM and an IC50 [6, 10] of 6 nM.
